Measurements: patent publication US20240067668A1, “HETEROARYL DERIVATIVE COMPOUND AND USE THEREOF” (VORONOI INC., priority 2020, published 2024)

Tests used:
[1] = tested on: BaF3-EGFR (Del19/T790M/C797S) cells; experiment: Inhibitory activity on Ba/F3 cell proliferation (CellTiter-Glo, 72 hours); assay type: cell-based; details: Ba/F3 cells expressing EGFR Del19/T790M/C797S
Protocol: (§1) The following experiments were performed to evaluate the inhibitory activity of the compound represented by Chemical Formula 1 according to the present invention on the proliferation of Ba/F3 cells expressing EGFR mutants.
(§2) BaF3-EGFR (WT) and BaF3-EGFR (Del19/T790M/C797S) cells were seeded in a clear bottom white 96-well plate at a density of 3×10^3/100 μl/well, and then 0.5 μl/well of the culture medium, containing the compounds at 12 concentrations (0.00001-2 mM) serially diluted in 3 folds and the DMSO control, was added to a final concentration of 0.00005-10 μM, followed by culturing in a 37° C. CO2 incubator for 72 hours. After 72 hours, the plates treated with the compounds were taken out, treated with 100 μl/well of CellTiter-Glo® 2.0 Assay (Promega) solution, and mixed well. After mixing well at room temperature for about 10 minutes, […] was measured using a microplate reader. As to Data, GI50 (μM) values were calculated using GraphPad Prism 8.3.0 (GraphPad software Inc., San Diego) as percentages in proportion to vehicle-based treated cells. The result values were calculated as a cell growth rate (%) compared to the control group. A graph was created using the GraphPad Prism version 5.0 program, and GI50 (μM) values were calculated.

BaF3-EGFR (WT) cells = experiment: as above; assay type: cell-based; details: Ba/F3 cells expressing EGFR WT
Protocol: as §1, §2

EGFR Del19/T790M/C797S = EGFR Del19/T790M/C797S (Homo sapiens, UniProt P00533, C797S/T790M, form not given); experiment: Enzyme IC50, EGFR Del19/T790M/C797S; assay type: biochemical
EGFR Del19/T790M/C797S, sequence (P00533 25-1210 T790M/C797S, form open): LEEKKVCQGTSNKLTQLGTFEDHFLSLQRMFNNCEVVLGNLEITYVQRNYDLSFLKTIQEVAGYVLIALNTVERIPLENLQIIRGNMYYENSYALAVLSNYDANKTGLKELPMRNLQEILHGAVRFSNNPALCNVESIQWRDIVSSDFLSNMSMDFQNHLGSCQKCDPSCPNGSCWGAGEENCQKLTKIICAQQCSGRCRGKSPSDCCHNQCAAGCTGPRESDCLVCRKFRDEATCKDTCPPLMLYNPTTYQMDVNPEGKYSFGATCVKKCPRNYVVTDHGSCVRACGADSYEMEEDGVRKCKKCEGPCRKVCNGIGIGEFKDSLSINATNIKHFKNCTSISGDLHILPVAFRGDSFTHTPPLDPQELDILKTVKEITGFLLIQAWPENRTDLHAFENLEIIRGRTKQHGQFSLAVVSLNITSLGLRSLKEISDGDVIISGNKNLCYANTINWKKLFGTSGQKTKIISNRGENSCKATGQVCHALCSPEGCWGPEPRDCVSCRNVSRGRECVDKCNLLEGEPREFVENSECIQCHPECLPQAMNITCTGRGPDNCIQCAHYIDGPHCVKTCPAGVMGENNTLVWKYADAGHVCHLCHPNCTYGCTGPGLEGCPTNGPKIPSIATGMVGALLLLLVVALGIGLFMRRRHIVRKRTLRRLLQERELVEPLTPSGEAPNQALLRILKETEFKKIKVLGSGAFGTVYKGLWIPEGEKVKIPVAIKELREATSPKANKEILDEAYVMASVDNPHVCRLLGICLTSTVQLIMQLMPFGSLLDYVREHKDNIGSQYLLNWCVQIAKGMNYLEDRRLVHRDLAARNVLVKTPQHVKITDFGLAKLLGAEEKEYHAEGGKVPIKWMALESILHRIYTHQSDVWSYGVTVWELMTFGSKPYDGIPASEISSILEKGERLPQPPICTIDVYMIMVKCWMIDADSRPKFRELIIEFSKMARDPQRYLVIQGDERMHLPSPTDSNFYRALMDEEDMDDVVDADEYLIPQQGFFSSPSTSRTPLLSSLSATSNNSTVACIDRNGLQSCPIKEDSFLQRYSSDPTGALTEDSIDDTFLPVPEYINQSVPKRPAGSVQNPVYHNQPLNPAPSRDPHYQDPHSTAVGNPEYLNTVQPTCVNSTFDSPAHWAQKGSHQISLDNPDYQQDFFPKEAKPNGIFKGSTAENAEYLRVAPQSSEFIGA

| Compound | GI50 [1] [µM] | GI50 (BaF3-EGFR (WT) cells) [µM] | IC50 (EGFR Del19/T790M/C797S) [µM] |
| --- | --- | --- | --- |
| COc1cc(N2CCC(N3CCN(C)CC3)CC2)c(-c2cnn(C)c2)cc1Nc1nc(Nc2ccc3nccnc3c2P(C)(C)=O)c2cc[nH]c2n1 [Example 24, (6-((2-((2-methoxy-5-(1-methyl-1H-pyrazol-4-yl)-4-(4-(4-methylpiperazin-1-yl)piperidin-1-yl)phenyl)amino)-7H-pyrrolo[2,3-d]pyrimidin-4-yl)amino)quinoxalin-5-yl)dimethyl-phosphine oxide] | ≤ 0.05 | > 0.1 | ≤ 0.05 |
| COc1cc(N2CCOCC2)c(-c2cnn(C)c2)cc1Nc1nc(Nc2ccc3nccnc3c2P(C)(C)=O)c2cc[nH]c2n1 [Example 25, (6-((2-((2-methoxy-5-(1-methyl-1H-pyrazol-4-yl)-4-morpholino-phenyl)amino)-7H-pyrrolo[2,3-d]pyrimidin-4-yl)amino)quinoxalin-5-yl)dimethyl-phosphine oxide] | ≤ 0.05 | > 0.1 | ≤ 0.05 |
| COc1cc(N2C[C@@H]3C[C@H]2CO3)c(-c2cnn(C)c2)cc1Nc1nc(Nc2ccc3nccnc3c2P(C)(C)=O)c2cc[nH]c2n1 [Example 26, (6-((2-((4-((1s,4S)-2-oxa-5-azabicyclo [2.2.1]heptan-5-yl)-2-methoxy-5-(1-methyl-1H-pyrazol-4-yl)phenyl)amino)-7H-pyrrolo[2,3-d]pyrimidin-4-yl)amino)quinoxalin-5-yl)dimethyl-phosphine oxide] | ≤ 0.05 | > 0.1 | ≤ 0.05 |
| COc1cc(N2C[C@H]3C[C@@H]2CO3)c(-c2cnn(C)c2)cc1Nc1nc(Nc2ccc3nccnc3c2P(C)(C)=O)c2cc[nH]c2n1 [Example 27] | ≤ 0.05 | > 0.1 | ≤ 0.05 |
| COc1ccc(-c2cnn(C)c2)cc1Nc1nc(Nc2ccc3nccnc3c2P(C)(C)=O)c2cc[nH]c2n1 [Example 28, (6-((2-((2-methoxy-5-(1-methyl-1H-pyrazol-4-yl)phenyl)amino)-7H-pyrrolo[2,3-d]pyrimidin-4-yl)amino)quinoxalin-5-yl)dimethyl-phosphine oxide] | ≤ 0.05 | > 0.1 | ≤ 0.05 |
| COc1cc(N2CC3(COC3)C2)c(-c2cnn(C)c2)cc1Nc1nc(Nc2ccc3nccnc3c2P(C)(C)=O)c2cc[nH]c2n1 [Example 29, (6-((2-((2-methoxy-5-(1-methyl-1H-pyrazol-4-yl)-4-(2-oxa-6-azaspiro[3.3]heptan-6-yl)phenyl)amino)-7H-pyrrolo[2,3-d]pyrimidin-4-yl)amino)quinoxalin-5-yl)dimethyl-phosphine oxide] | > 0.1 | > 0.1 | ≤ 0.05 |
| COc1cc(N2C[C@H]3CC[C@@H](C2)O3)c(-c2cnn(C)c2)cc1Nc1nc(Nc2ccc3nccnc3c2P(C)(C)=O)c2cc[nH]c2n1 [Example 30, (6-((2-((4-((1R,5S)-8-oxa-3-azabicyclo [3.2.1]octan-3-yl)-2-methoxy-5-(1-methyl-1H-pyrazol-4-yl)phenyl)amino)-7H-pyrrolo[2,3-d]pyrimidin-4-yl)amino)quinoxalin-5-yl)dimethyl-phosphine oxide] | ≤ 0.05 | > 0.1 | ≤ 0.05 |
| COc1cc(F)c(-c2cnn(C)c2)cc1Nc1nc(Nc2ccc3nccnc3c2P(C)(C)=O)c2cc[nH]c2n1 [Example 31, (6-((2-((4-fluoro-2-methoxy-5-(1-methyl-1H-pyrazol-4-yl)phenyl)amino)-7H-pyrrolo[2,3-d]pyrimidin-4-yl)amino)quinoxalin-5-yl)dimethyl-phosphine oxide] | > 0.1 | > 0.1 | ≤ 0.05 |
| COc1cc(N2CCC3(CC2)COC3)c(-c2cnn(C)c2)cc1Nc1nc(Nc2ccc3nccnc3c2P(C)(C)=O)c2cc[nH]c2n1 [Example 32, (6-((2-((2-methoxy-5-(1-methyl-1H-pyrazol-4-yl)-4-(2-oxa-7-azaspiro[3.5]nonane-7-yl)phenyl)amino)-7H-pyrrolo[2,3-d]pyrimidin-4-yl)amino)quinoxalin-5-yl)dimethyl-phosphine oxide] | ≤ 0.05 | > 0.1 | ≤ 0.05 |
| COc1cc(N2CC3(CCOCC3)C2)c(-c2cnn(C)c2)cc1Nc1nc(Nc2ccc3nccnc3c2P(C)(C)=O)c2cc[nH]c2n1 [Example 33, (6-((2-((2-methoxy-5-(1-methyl-1H-pyrazol-4-yl)-4-(7-oxa-2-azaspiro[3.5]nonane-2-yl)phenyl)amino)-7H-pyrrolo[2,3-d]pyrimidin-4-yl)amino)quinoxalin-5-yl)dimethyl-phosphine oxide] | > 0.1 | > 0.1 | ≤ 0.05 |
| Cn1cc(-c2cc(Nc3nc(Nc4ccc5nccnc5c4P(C)(C)=O)c4cc[nH]c4n3)ccc2N2CCOCC2)cn1 [Example 34, dimethyl (6-((2-((3-(1-methyl-1H-pyrazol-4-yl)-4-morpholino-phenyl)amino)-7H-pyrrolo[2,3-d]pyrimidin-4-yl)amino)quinoxalin-5-yl)phosphine oxide] | ≤ 0.05 | > 0.1 | ≤ 0.05 |
| COc1cc(OCCN(C)C)c(-c2cnn(C)c2)cc1Nc1nc(Nc2ccc3nccnc3c2P(C)(C)=O)c2cc[nH]c2n1 [Example 35, (6-((2-((4-(2-(dimethylamino)ethoxy)-2-methoxy-5-(1-methyl-1H-pyrazol-4-yl)phenyl)amino)-7H-pyrrolo[2,3-d]pyrimidin-4-yl)amino)quinoxalin-5-yl)dimethyl-phosphine oxide] | ≤ 0.05 | > 0.1 | ≤ 0.05 |
| COc1cc(N(C)CCN(C)C)c(-c2cnn(C)c2)cc1Nc1nc(Nc2ccc3nccnc3c2P(C)(C)=O)c2cc[nH]c2n1 [Example 36, (6-((2-((4-((2-(dimethylamino)ethyl) (methyl)amino)-2-methoxy-5-(1-methyl-1H-pyrazol-4-yl)phenyl)amino)-7H-pyrrolo[2,3-d]pyrimidin-4-yl)amino)quinoxalin-5-yl)dimethyl-phosphine oxide] | ≤ 0.05 | > 0.1 | ≤ 0.05 |
| COc1cc(N2C[C@H]3COC[C@H]3C2)c(-c2cnn(C)c2)cc1Nc1nc(Nc2ccc3nccnc3c2P(C)(C)=O)c2cc[nH]c2n1 [Example 41, (6-((2-((2-methoxy-5-(1-methyl-1H-pyrazol-4-yl)-4-((3aR,6aS)-tetrahydro-1H-furo[3,4-c]pyrrole-5(3H)-yl)phenyl)amino)-7H-pyrrolo[2,3-d]pyrimidin-4-yl)amino)quinoxalin-5-yl)dimethyl-phosphine oxide] | ≤ 0.05 | > 0.1 | ≤ 0.05 |
| COc1cc(N2CCN3CCCC[C@@H]3C2)c(-c2cnn(C)c2)cc1Nc1nc(Nc2ccc3nccnc3c2P(C)(C)=O)c2cc[nH]c2n1 [Example 43, (R)-(6-((2-((2-methoxy-5-(1-methyl-1H-pyrazol-4-yl)-4-(octahydro-2H-pyrido[1,2-alpyrazin)-2-yl)phenyl)amino)-7H-pyrrolo[2,3-d]pyrimidin-4-yl)amino)quinoxalin-5-yl)dimethyl-phosphine oxide] | ≤ 0.05 | 0.05 to 0.1 | ≤ 0.05 |
| COc1nc(N2CCN(C)CC2)c(-c2cnn(C)c2)cc1Nc1nc(Nc2ccc3nccnc3c2P(C)(C)=O)c2cc[nH]c2n1 [Example 44, (6-((2-((2-methoxy-5-(1-methyl-1H-pyrazol-4-yl)-6-(4-methyl-piperazin-1-yl)pyridin-3-yl)amino)-7H-pyrrolo[2,3-d]pyrimidin-4-yl)amino)quinoxalin-5-yl)dimethyl-phosphine oxide] | ≤ 0.05 | > 0.1 | ≤ 0.05 |
| CCn1cc(-c2cc(Nc3nc(Nc4ccc5nccnc5c4P(C)(C)=O)c4cc[nH]c4n3)c(OC)cc2N2CCN(C)CC2)cn1 [Example 47, (6-((2-((5-(1-ethyl-1H-pyrazol-4-yl)-2-methoxy-4-(4-methyl-piperazin-1-yl)phenyl)amino)-7H-pyrrolo[2,3-d]pyrimidin-4-yl)amino)quinoxalin-5-yl)dimethyl-phosphine oxide] | ≤ 0.05 | > 0.1 | ≤ 0.05 |
| CCN1CCN(c2cc(OC)c(Nc3nc(Nc4ccc5nccnc5c4P(C)(C)=O)c4cc[nH]c4n3)cc2-c2cnn(C(C)C)c2)CC1 [Example 48, (6-((2-((4-(4-ethylpiperazin-1-yl)-5-(1-isopropyl-1H-pyrazol-4-yl)-2-methoxyphenyl)amino)-7H-pyrrolo[2,3-d]pyrimidin-4-yl)amino)quinoxalin-5-yl)dimethyl-phosphine oxide] | > 0.1 | > 0.1 | ≤ 0.05 |
| COc1cc(N2CCN(C)CC2)c(-c2cnn(C(F)F)c2)cc1Nc1nc(Nc2ccc3nccnc3c2P(C)(C)=O)c2cc[nH]c2n1 [Example 50, (6-((2-((5-(1-(difluoromethyl)-1H-pyrazol-4-yl)-2-methoxy-4-(4-methyl-piperazin-1-yl)phenyl)amino)-7H-pyrrolo[2,3-d]pyrimidin-4-yl)amino)quinoxalin-5-yl)dimethyl-phosphine oxide] | ≤ 0.05 | > 0.1 | ≤ 0.05 |
